The first assay concerns 1368 (donor line of iPSC-derived cardiomyocytes). The assay is described as follows: POD (EC05) for increase in beat frequency (positive chronotrope) vs vehicle; higher = less potent (higher point of departure). Conditions: exposure time: 90 min. As for the experimental part:
(§1)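 Human iPSC-derived cardiomyocytes from 16 donors were exposed for 90 min at 37 °C to each PFAS at 0.1, 1, 10 and 100 µM in 0.5% DMSO, 384-well plates. Kinetic Ca2+ flux (FLIPR) and Hoechst nuclei counts were normalised to vehicle wells and fitted with a hierarchical Bayesian Hill model to give donor-specific PODs: EC05 for beat-rate increase or decrease and for decay-to-rise ratio increase (QT proxy), EC95 for peak-frequency loss (asystole), EC10 for total cell number loss. 0.03 µM is the lower bound.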
In turn, `OCC(F)(F)C(F)(F)C(F)(F)C(F)(F)C(F)(F)C(F)(F)F` [6:1 Fluorotelomer alcohol] gave a POD vs vehicle above 100 µM.

Take `OCCC(F)(F)C(F)(F)C(F)(F)C(F)(F)C(F)(F)C(F)(F)F` [6:2 Fluorotelomer alcohol]: the POD vs vehicle was above 100 µM.

`O=S(=O)(O)CCC(F)(F)C(F)(F)C(F)(F)C(F)(F)C(F)(F)C(F)(F)F` [6:2 Fluorotelomer sulfonic acid] displayed a POD vs vehicle above 100 µM.

`OCCC(F)(F)C(F)(F)C(F)(F)C(F)(F)C(F)(F)C(F)(F)C(F)(F)C(F)(F)F` [8:2 Fluorotelomer alcohol] gave a POD vs vehicle above 100 µM.

In turn, `O=S(=O)(O)CCC(F)(F)C(F)(F)C(F)(F)C(F)(F)C(F)(F)C(F)(F)C(F)(F)C(F)(F)F` [8:2 Fluorotelomer sulfonic acid] came in with a POD vs vehicle of 77.4 µM.

With `O=C(O)C(F)(F)C(F)(F)C(F)(F)C(F)(F)C(F)(F)C(F)(F)C(F)(F)C(F)(F)Cl` [9-Chloro-perfluorononanoic_acid], the POD vs vehicle was above 100 µM.

As for `O=P(O)(O)CCC(F)(F)C(F)(F)C(F)(F)C(F)(F)C(F)(F)C(F)(F)C(F)(F)C(F)(F)F` [((Perfluorooctyl)ethyl)phosphonic_acid], the POD vs vehicle was above 100 µM.

Regarding `OCC(F)(F)C(F)(F)C(F)(F)C(F)(F)C(F)(F)C(F)F` [Dodecafluoroheptanol], the POD vs vehicle is above 100 µM.

`OCC(F)(F)C(F)(F)C(F)(F)F` [Heptafluorobutanol] had a POD vs vehicle above 100 µM.

`NC(=O)C(F)(F)C(F)(F)C(F)(F)F` [Heptafluorobutyramide] had a POD vs vehicle above 100 µM.

For the compound `OCC(F)(F)C(F)(F)C(F)(F)CO` [Hexafluoroamylene_glycol], the POD vs vehicle was above 100 µM.

In turn, `COC(=O)C(F)(F)C(F)(F)OC(F)(C(F)(F)F)C(F)(F)OC(F)=C(F)F` (configuration not stated) [Methyl_perfluoro(3-(1-ethenyloxypropan-2-yloxy)propanoate)] came in with a POD vs vehicle above 100 µM.

The compound `NC(=O)C(F)(F)C(F)(F)C(F)(F)C(F)(F)F` [Nonafluoropentanamide] gave a POD vs vehicle above 100 µM.

As to `NC(=O)C(F)(F)C(F)(F)C(F)(F)C(F)(F)C(N)=O` [Octafluoroadipamide], the POD vs vehicle is above 100 µM.

For the compound `O=C(O)C(F)(F)C(F)(F)C(F)(F)C(F)(F)C(=O)O` [Octafluoroadipic_acid], the POD vs vehicle is above 100 µM.

`O=C(O)C(F)(F)C(F)(F)C(F)(F)OC(F)(F)F` [Perfluoro(4-methoxybutanoic)_acid]: the POD vs vehicle is above 100 µM.

In the case of `O=C(O)C(F)(F)OC(F)(F)C(F)(F)OC(F)(F)C(F)(F)OC(F)(F)C(F)(F)C(F)(F)C(F)(F)F` [Perfluoro-3,6,9-trioxatridecanoic_acid], the POD vs vehicle is above 100 µM.

`O=C(O)C(F)(F)OC(F)(F)C(F)(F)OC(F)(F)F` [Perfluoro-3,6-dioxaheptanoic_acid] had a POD vs vehicle above 100 µM.

Compound `O=C(O)C(F)(F)OC(F)(F)C(F)(F)OC(F)(F)C(=O)O` [Perfluoro-3,6-dioxaoctane-1,8-dioic_acid] showed a POD vs vehicle above 100 µM.

Another assay deals with 20084 (donor line of iPSC-derived cardiomyocytes). The description is as above. Conditions: exposure time: 90 min. As for the experimental part:
as §1
For `OCC(F)(F)C(F)(F)C(F)(F)C(F)(F)C(F)(F)C(F)(F)F` [6:1 Fluorotelomer alcohol], the POD vs vehicle is above 100 µM.

As for `OCCC(F)(F)C(F)(F)C(F)(F)C(F)(F)C(F)(F)C(F)(F)F` [6:2 Fluorotelomer alcohol], the POD vs vehicle was above 100 µM.

`O=S(=O)(O)CCC(F)(F)C(F)(F)C(F)(F)C(F)(F)C(F)(F)C(F)(F)F` [6:2 Fluorotelomer sulfonic acid] had a POD vs vehicle above 100 µM.

On to `OCCC(F)(F)C(F)(F)C(F)(F)C(F)(F)C(F)(F)C(F)(F)C(F)(F)C(F)(F)F` [8:2 Fluorotelomer alcohol], for which the POD vs vehicle is above 100 µM.

In the case of `O=S(=O)(O)CCC(F)(F)C(F)(F)C(F)(F)C(F)(F)C(F)(F)C(F)(F)C(F)(F)C(F)(F)F` [8:2 Fluorotelomer sulfonic acid], the POD vs vehicle was above 100 µM.

In the case of `O=C(O)C(F)(F)C(F)(F)C(F)(F)C(F)(F)C(F)(F)C(F)(F)C(F)(F)C(F)(F)Cl` [9-Chloro-perfluorononanoic_acid], the POD vs vehicle was above 100 µM.

`O=P(O)(O)CCC(F)(F)C(F)(F)C(F)(F)C(F)(F)C(F)(F)C(F)(F)C(F)(F)C(F)(F)F` [((Perfluorooctyl)ethyl)phosphonic_acid] gave a POD vs vehicle above 100 µM.

`OCC(F)(F)C(F)(F)C(F)(F)C(F)(F)C(F)(F)C(F)F` [Dodecafluoroheptanol] came in with a POD vs vehicle above 100 µM.

Regarding `OCC(F)(F)C(F)(F)C(F)(F)F` [Heptafluorobutanol], the POD vs vehicle was above 100 µM.

As for `NC(=O)C(F)(F)C(F)(F)C(F)(F)F` [Heptafluorobutyramide], the POD vs vehicle is above 100 µM.

For `OCC(F)(F)C(F)(F)C(F)(F)CO` [Hexafluoroamylene_glycol], the POD vs vehicle is above 100 µM.

`COC(=O)C(F)(F)C(F)(F)OC(F)(C(F)(F)F)C(F)(F)OC(F)=C(F)F` (configuration not stated) [Methyl_perfluoro(3-(1-ethenyloxypropan-2-yloxy)propanoate)] came in with a POD vs vehicle above 100 µM.

In turn, `NC(=O)C(F)(F)C(F)(F)C(F)(F)C(F)(F)F` [Nonafluoropentanamide] displayed a POD vs vehicle above 100 µM.

Compound `NC(=O)C(F)(F)C(F)(F)C(F)(F)C(F)(F)C(N)=O` [Octafluoroadipamide] gave a POD vs vehicle above 100 µM.

`O=C(O)C(F)(F)C(F)(F)C(F)(F)C(F)(F)C(=O)O` [Octafluoroadipic_acid] displayed a POD vs vehicle above 100 µM.

`O=C(O)C(F)(F)C(F)(F)C(F)(F)OC(F)(F)F` [Perfluoro(4-methoxybutanoic)_acid] yielded a POD vs vehicle above 100 µM.

`O=C(O)C(F)(F)OC(F)(F)C(F)(F)OC(F)(F)C(F)(F)OC(F)(F)C(F)(F)C(F)(F)C(F)(F)F` [Perfluoro-3,6,9-trioxatridecanoic_acid] displayed a POD vs vehicle above 100 µM.

As to `O=C(O)C(F)(F)OC(F)(F)C(F)(F)OC(F)(F)F` [Perfluoro-3,6-dioxaheptanoic_acid], the POD vs vehicle is above 100 µM.

`O=C(O)C(F)(F)OC(F)(F)C(F)(F)OC(F)(F)C(=O)O` [Perfluoro-3,6-dioxaoctane-1,8-dioic_acid] displayed a POD vs vehicle above 100 µM.

A further assay concerns 20032 (donor line of iPSC-derived cardiomyocytes). The description is as above. Conditions: exposure time: 90 min. As for the experimental part: as §1
As for `OCC(F)(F)C(F)(F)C(F)(F)C(F)(F)C(F)(F)C(F)(F)F` [6:1 Fluorotelomer alcohol], the POD vs vehicle is above 100 µM.

`OCCC(F)(F)C(F)(F)C(F)(F)C(F)(F)C(F)(F)C(F)(F)F` [6:2 Fluorotelomer alcohol]: the POD vs vehicle is above 100 µM.

In turn, `O=S(=O)(O)CCC(F)(F)C(F)(F)C(F)(F)C(F)(F)C(F)(F)C(F)(F)F` [6:2 Fluorotelomer sulfonic acid] displayed a POD vs vehicle above 100 µM.

For the compound `OCCC(F)(F)C(F)(F)C(F)(F)C(F)(F)C(F)(F)C(F)(F)C(F)(F)C(F)(F)F` [8:2 Fluorotelomer alcohol], the POD vs vehicle is above 100 µM.

In the case of `O=S(=O)(O)CCC(F)(F)C(F)(F)C(F)(F)C(F)(F)C(F)(F)C(F)(F)C(F)(F)C(F)(F)F` [8:2 Fluorotelomer sulfonic acid], the POD vs vehicle was above 100 µM.

`O=C(O)C(F)(F)C(F)(F)C(F)(F)C(F)(F)C(F)(F)C(F)(F)C(F)(F)C(F)(F)Cl` [9-Chloro-perfluorononanoic_acid] returned a POD vs vehicle above 100 µM.

With `O=P(O)(O)CCC(F)(F)C(F)(F)C(F)(F)C(F)(F)C(F)(F)C(F)(F)C(F)(F)C(F)(F)F` [((Perfluorooctyl)ethyl)phosphonic_acid], the POD vs vehicle was above 100 µM.

Turning to `OCC(F)(F)C(F)(F)C(F)(F)C(F)(F)C(F)(F)C(F)F` [Dodecafluoroheptanol], the POD vs vehicle was above 100 µM.

For `OCC(F)(F)C(F)(F)C(F)(F)F` [Heptafluorobutanol], the POD vs vehicle was above 100 µM.

For the origin of these results see the supplement of paper PMC11368000.
